Results on 23 compounds are retold here after ChEMBL document CHEMBL4840323, “Discovery of an Orally Bioavailable Small-Molecule Inhibitor for the β-Catenin/B-Cell Lymphoma 9 Protein-Protein Interaction” (J Med Chem, 2021).

In data set [1] the target is T1, beta-catenin-B-cell lymphoma 9 protein complex (Homo sapiens, UniProt P35222).
T1 sequence (P35222 whole entry): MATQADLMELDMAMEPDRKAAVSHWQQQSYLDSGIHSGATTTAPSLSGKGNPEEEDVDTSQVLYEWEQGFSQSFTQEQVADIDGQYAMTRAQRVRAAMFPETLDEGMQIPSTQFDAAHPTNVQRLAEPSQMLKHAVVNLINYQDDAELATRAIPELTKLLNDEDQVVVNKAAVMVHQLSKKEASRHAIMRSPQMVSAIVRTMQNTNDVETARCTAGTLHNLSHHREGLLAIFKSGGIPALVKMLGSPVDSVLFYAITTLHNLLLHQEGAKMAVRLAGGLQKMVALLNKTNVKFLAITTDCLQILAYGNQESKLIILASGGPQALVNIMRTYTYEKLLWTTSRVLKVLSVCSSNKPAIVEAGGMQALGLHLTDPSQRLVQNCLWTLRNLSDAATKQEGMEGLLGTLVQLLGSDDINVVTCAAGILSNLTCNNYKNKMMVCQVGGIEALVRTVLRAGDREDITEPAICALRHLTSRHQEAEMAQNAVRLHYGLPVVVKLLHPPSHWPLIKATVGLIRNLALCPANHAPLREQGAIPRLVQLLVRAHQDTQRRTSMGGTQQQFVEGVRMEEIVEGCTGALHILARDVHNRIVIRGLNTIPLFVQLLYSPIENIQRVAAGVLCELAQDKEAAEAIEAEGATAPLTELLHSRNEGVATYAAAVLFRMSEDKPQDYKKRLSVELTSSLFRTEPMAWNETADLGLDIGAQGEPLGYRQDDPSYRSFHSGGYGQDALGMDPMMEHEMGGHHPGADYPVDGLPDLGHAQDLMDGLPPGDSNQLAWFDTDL
T1 sequence (O00512 whole entry): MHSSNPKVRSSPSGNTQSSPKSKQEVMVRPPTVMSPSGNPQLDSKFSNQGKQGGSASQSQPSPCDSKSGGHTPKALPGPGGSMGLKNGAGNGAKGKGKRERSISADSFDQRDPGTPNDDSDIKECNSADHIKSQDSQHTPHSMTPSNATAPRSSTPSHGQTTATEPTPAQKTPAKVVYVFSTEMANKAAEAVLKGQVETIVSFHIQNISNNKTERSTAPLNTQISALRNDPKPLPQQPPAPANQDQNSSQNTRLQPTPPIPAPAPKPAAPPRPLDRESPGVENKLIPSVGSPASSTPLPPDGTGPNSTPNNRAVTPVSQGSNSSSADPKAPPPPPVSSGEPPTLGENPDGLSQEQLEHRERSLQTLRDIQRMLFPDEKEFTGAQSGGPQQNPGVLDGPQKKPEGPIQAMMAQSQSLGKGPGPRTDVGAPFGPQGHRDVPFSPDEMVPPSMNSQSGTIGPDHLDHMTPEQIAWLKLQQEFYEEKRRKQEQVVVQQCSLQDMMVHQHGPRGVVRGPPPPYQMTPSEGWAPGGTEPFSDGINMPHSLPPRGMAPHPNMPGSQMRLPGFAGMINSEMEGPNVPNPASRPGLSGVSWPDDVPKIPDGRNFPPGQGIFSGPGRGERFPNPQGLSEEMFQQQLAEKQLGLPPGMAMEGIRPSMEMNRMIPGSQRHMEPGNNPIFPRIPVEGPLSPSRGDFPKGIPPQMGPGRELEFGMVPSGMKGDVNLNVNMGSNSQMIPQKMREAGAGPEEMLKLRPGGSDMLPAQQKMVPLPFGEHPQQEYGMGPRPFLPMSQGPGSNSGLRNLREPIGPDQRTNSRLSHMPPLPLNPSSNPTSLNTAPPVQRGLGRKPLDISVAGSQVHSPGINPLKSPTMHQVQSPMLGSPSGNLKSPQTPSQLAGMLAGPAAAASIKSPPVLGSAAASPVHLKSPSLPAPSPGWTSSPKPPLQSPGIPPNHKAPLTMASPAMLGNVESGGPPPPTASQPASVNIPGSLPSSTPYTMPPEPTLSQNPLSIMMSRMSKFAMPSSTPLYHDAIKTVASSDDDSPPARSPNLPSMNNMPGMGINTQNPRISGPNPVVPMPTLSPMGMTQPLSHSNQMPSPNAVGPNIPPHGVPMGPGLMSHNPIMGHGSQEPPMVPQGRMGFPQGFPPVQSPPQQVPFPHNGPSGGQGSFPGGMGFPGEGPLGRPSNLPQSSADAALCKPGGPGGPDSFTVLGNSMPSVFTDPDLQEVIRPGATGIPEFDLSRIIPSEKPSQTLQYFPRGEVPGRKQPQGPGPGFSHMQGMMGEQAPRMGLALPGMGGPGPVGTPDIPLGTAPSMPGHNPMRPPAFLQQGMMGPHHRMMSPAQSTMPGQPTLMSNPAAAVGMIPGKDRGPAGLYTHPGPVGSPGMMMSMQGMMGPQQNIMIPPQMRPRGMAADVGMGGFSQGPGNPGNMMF
Put plainly: Inhibition of C-terminal 6-His-tagged beta-catenin (1 to 781 residues) (unknown origin) expressed in Escherichia coli BL21 (DE3)-N-terminal biotinylated human BCL9 (350 to 375 residues) protein-protein interaction incubated for 1 hr by Alphascreen assay.

The target of data set [2] is T1, beta-catenin-B-cell lymphoma 9 protein complex. Put plainly: Inhibition of N-terminal 6-His-tagged beta-catenin (1 to 781 residues) (unknown origin) expressed in Escherichia coli BL21 (DE3)-N-terminal biotinylated human BCL9 (350 to 375 residues) protein-protein interaction incubated for 1 hr by Alphascreen assay. (In general: In Alpha technology, singlet oxygen from a donor bead excites a nearby acceptor bead.)

In data set [3] the test system is MCF-10A. In words: cells. To be noted: Homo sapiens, 72 h.
Description: Cytotoxicity against human MCF-10A cells assessed as cell growth inhibition measured after 72 hrs by MTS assay
For data set [4], the system named is MDA-MB-468. In words: cells. The following applies: Homo sapiens, MDA-MB-468, 72 h.
Description: Antiproliferative activity against human MDA-MB-468 cells assessed as cell growth inhibition measured after 72 hrs by MTS assay
The subject of data set [5] is MDA-MB-231. Put plainly: cells. The following applies: Homo sapiens, MDA-MB-231, 72 h.
Description: Antiproliferative activity against human MDA-MB-231 cells assessed as cell growth inhibition measured after 72 hrs by MTS assay
Data set [6] has as its system SW480. In words: cells. To be noted: Homo sapiens, SW480, 72 h.
Description: Antiproliferative activity against human SW480 cells assessed as cell growth inhibition measured after 72 hrs by MTS assay
Data set [7] relates to HCT-116. Put plainly: cells. To be noted: Homo sapiens, HCT-116, 72 h.
Description: Antiproliferative activity against human HCT-116 cells assessed as cell growth inhibition measured after 72 hrs by MTS assay
Data set [8] can be described thus: Intrinsic clearance in human liver microsomes at 1 uM measured up to 60 mins in presence of NADPH by LC-MS/SM analysis. The class given is ADME, Microsome. In general terms: Liver microsomes are vesicles of endoplasmic reticulum, rich in cytochrome P450 enzymes.
A short description of data set [9]: Intrinsic clearance in mouse liver microsomes at 1 uM measured up to 60 mins in presence of NADPH by LC-MS/SM analysis. To be noted: 1 h. The class given is ADME, Microsome.
The nature of data set [10]: Half life in mouse liver microsomes at 1 uM measured up to 60 mins in presence of NADPH by LC-MS/SM analysis. The class given is ADME, Microsome. The following applies: 1 h.
A short description of data set [11]: Half life in human liver microsomes at 1 uM measured up to 60 mins in presence of NADPH by LC-MS/SM analysis. The class given is ADME, Microsome. To be noted: 1 h.
Data set [12] has as its target T2, Catenin beta-1 (Homo sapiens, UniProt P35222).
T2 sequence (P35222 whole entry): T1 sequence (P35222 whole entry)
Put plainly: Inhibition of beta-catenin (unknown origin) transfected in HEK293 cells cotransfected with pCMV-RL assessed as reduction in luciferase activity measured after 24 hrs by TOPFlash luciferase reporter assay. The class given is cell-based. (Reporter assays use an easily measured gene product as a stand-in for the process of interest.)

Compound `CC(C)(Oc1cccc(N2CCC[C@@H](C(=O)N(Cc3ccc(C(C)(C)C)cc3)C3CC3)C2)c1)C(=O)N1CCNCC1` had an IC50 in data set [1] of 14 µM. The compound also registered a Ki in [2] of 13 µM.
Take `O=C1[C@H](Cc2ccc(O)cc2)N2C(=O)CCN(C(=O)NCc3ccccc3)[C@H]2CN1Cc1cccc2ccccc12`: the IC50 is 21 µM in data set [3]; 31 µM in data set [4]; 7.2 µM in data set [5]; 6.1 µM in [6]; 38 µM in [7].
On to `CCOCCN(Cc1ccc(-c2cn[nH]c2)cc1)C(=O)[C@@H]1CCCN(c2cccc(OC(C)(C)C(=O)N3CCNCC3)c2)C1`, for which the IC50 in data set [1] turned out to be 2.1 µM. This compound also returned a Ki in data set [2] of 1.9 µM.
The matching figures for `CC(C)(Oc1cccc(N2CCC[C@@H](C(=O)N(Cc3ccc(-c4ccsc4)cc3)C3CC3)C2)c1)C(=O)N1CCNCC1`: 5.5 µM and 5 µM.
With `CCN(Cc1ccc(-c2cn[nH]c2)cc1)C(=O)[C@@H]1CCCN(c2cccc(OC(C)(C)C(=O)N3CCNCC3)c2)C1.Cl`, the CLint at 1 h, 1 µM in data set [8] was determined as 24 µL/min/mg. For the same compound, the CLint in [9] came out at 90 µL/min/mg. Besides, the t1/2 in [10] came out at 7.7 min; in data set [11] it was 28.3 min.
`CC(C)(Oc1cccc(N2CCC[C@@H](C(=O)N(Cc3ccc(-c4cccnc4)cc3)C3CC3)C2)c1)C(=O)N1CCNCC1`: the midpoint of inhibition in data set [1], the IC50, lay at 73 µM. In addition, the affinity in data set [2], expressed as Ki, was 66 µM.
Consider `CN1CCN(C(=O)C(C)(C)Oc2cccc(N3CCC[C@@H](C(=O)N(Cc4ccc(-c5cn[nH]c5)cc4)C4CC4)C3)c2)CC1`, for which the IC50 in data set [12] is above 200 µM; in [1], 39 µM. Further, the Ki in [2] was found to be 32 µM.
For `CCN(CC)CCNC(=O)c1c(C)[nH]c(/C=C2\C(=O)Nc3ccc(F)cc32)c1C` [SUNITINIB], the CLint in data set [9] worked out at 53 µL/min/mg. In addition, the t1/2 in data set [10] stood at 13 min.
`Cn1cc(-c2ccc(CN(C(=O)[C@@H]3CCCN(c4cccc(OC(C)(C)C(=O)N5CCNCC5)c4)C3)C3CC3)cc2)cn1` had an IC50 in [1] of 76 µM. The compound also came in with a Ki in data set [2] of 68 µM.
For `CC(C)(Oc1cccc(N2CCC[C@@H](C(=O)N(Cc3ccc(-c4cn[nH]c4)cc3)C3CC3)C2)c1)C(=O)N1CCCCC1`, in that order: 53 µM and 43 µM.
As for `CC(C)c1ccc(CN(C)C(=O)[C@@H]2CCCN(c3cccc(OC(C)(C)C(=O)N4CCNCC4)c3)C2)cc1`, half-maximal inhibition in data set [1] (IC50) required 15 µM. The Ki in data set [2] stood at 14 µM.
The matching figures for `CC(C)c1ccc(CNC(=O)[C@@H]2CCCN(c3cccc(OC(C)(C)C(=O)N4CCNCC4)c3)C2)cc1`: 6.4 µM and 5.8 µM.
For `CC(C)(Oc1cccc(N2CCC[C@@H](C(=O)N(Cc3ccc(-c4ccncc4)cc3)C3CC3)C2)c1)C(=O)N1CCNCC1`, in that order: 82 µM and 74 µM.
`CC(C)(Oc1cccc(N2CCC[C@@H](C(=O)N(Cc3ccc(-c4ccccn4)cc3)C3CC3)C2)c1)C(=O)N1CCNCC1` returned an IC50 in data set [1] of 59 µM. In [2], the Ki turned out to be 54 µM.
Take `CC(C)(Oc1cccc(N2CCC[C@@H](C(=O)N(Cc3ccc(C4CCCCC4)cc3)C3CC3)C2)c1)C(=O)N1CCNCC1`: the IC50 in data set [1] was 5.3 µM. In [2], this compound came in with a Ki of 4.8 µM.
Regarding `CC(C)(Oc1cccc(N2CCC[C@@H](C(=O)N(Cc3ccc(-c4ccn[nH]4)cc3)C3CC3)C2)c1)C(=O)N1CCNCC1`, the midpoint of inhibition in data set [1], the IC50, lay at 8.9 µM. For the same compound, in data set [2], the Ki was 8 µM.
Consider `CC(C)c1ccc(CN(C(=O)[C@@H]2CCCN(c3cccc(OC(C)(C)C(=O)N4CCNCC4)c3)C2)C(C)C)cc1`, for which half-maximal inhibition in data set [1] (IC50) was put at 5.1 µM. The compound further showed a Ki in [2] of 4.6 µM.
The matching figures for `CCN(Cc1ccc(C(C)C)cc1)C(=O)[C@@H]1CCCN(c2cccc(OC(C)(C)C(=O)N3CCNCC3)c2)C1`: 12 µM and 11 µM.
The matching figures for `CC(C)c1ccc(CN(C(=O)[C@@H]2CCCN(c3cccc(OC(C)(C)C(=O)N4CCNCC4)c3)C2)C2CC2)cc1`: 3 µM and 2.7 µM.
In turn, `CC(C)(Oc1cccc(N2CCC[C@@H](C(=O)N(Cc3ccc(-c4ccccc4)cc3)C3CC3)C2)c1)C(=O)N1CCNCC1` came in with an IC50 in data set [1] of 4.5 µM. In [2], the affinity corresponds to a Ki of 4 µM.
As for `CC(C)c1ccc(CNC(=O)[C@H]2CCCN(c3cccc(OC(C)(C)C(=O)O)c3)C2)cc1`, the IC50 in [1] is above 100 µM. Also, the Ki in [2] was above 90 µM.
The matching figures for `CC(C)c1ccc(CNC(=O)[C@@H]2CCCN(c3cccc(OC(C)(C)C(=O)O)c3)C2)cc1`: 51 µM and 46 µM.
In the case of `Cc1cc(-c2ncc(CC(=O)Nc3ccc(-c4cnccn4)cn3)cc2C)ccn1` [WNT-974], the IC50 in data set [3], in data set [4], in [5], in data set [6] and in [7] was above 100 µM throughout.

Broadly, the IC50 is the point on the concentration scale where inhibition reaches its midpoint. In general, Ki refers to the dissociation constant of the complex between target and ligand, obtained from inhibition or displacement. Read a high Ki as weaker binding.
